Test results taken from publication PMC6015500 (ACS combinatorial science, 2015).
Like-named read-outs stand apart in the source and are kept apart here.

Legend:
[1] = tested on: HCV-Luc (recombinant HCV carrying the Renilla luciferase reporter); assay: HCV-Luc infection assay; assay type: cell-based, hepatitis C virus (HCV)
[2] = tested on: Huh7.5.1 cells; assay: in vitro; assay type: cell-based
[3] = tested on: VSVpp; assay type: cell-based
[4] = tested on: single-round infectious HCV (HCVsc); assay: HCV single-cycle assay; assay type: cell-based, hepatitis C virus (HCV); conditions: tested at 10 µM; % of DMSO control
[5] = tested on: HCV replicon cell line of genotype 2a; assay: HCV subgenomic replicon assay, genotype 2a; assay type: cell-based, hepatitis C virus (HCV); conditions: tested at 10 µM; % of DMSO control
[6] = in vitro; assay type: cell-based; conditions: human
[7] = in vitro; assay type: cell-based; conditions: human; remark: listed apart in the source
[8] = In vitro microsomal stability; assay type: in vitro ADME; conditions: CD-1, mouse, liver microsomes
[9] = tested on: wild-type HCV (HCVcc, genotype 2a); assay: HCVcc wild-type infection assay; assay type: cell-based, hepatitis C virus (HCV); conditions: Huh7.5.1 cells, compounds at 10 µM, 48 h, quantitative real-time PCR
[10] = tested on: HCV pseudoparticle (HCVpp) GT 1a; assay: HCVpp entry assay, genotype 1a; assay type: cell-based, hepatitis C virus (HCV); conditions: tested at 10 µM; % of DMSO control
[11] = tested on: HCV replicon cell line of genotype 1b; assay: HCV subgenomic replicon assay, genotype 1b; assay type: cell-based, hepatitis C virus (HCV); conditions: tested at 10 µM; % of DMSO control
[12] = tested on: transient genotype 1a subgenomic replicon in Huh7.5.1 cells; assay: Transient genotype 1a replicon assay; assay type: cell-based, hepatitis C virus (HCV); conditions: tested at 10 µM; % of DMSO control
[13] = Double-sink PAMPA permeability; assay type: in vitro ADME
[14] = tested on: HCV pseudoparticle (HCVpp) GT 1b; assay: HCVpp entry assay, genotype 1b; assay type: cell-based, hepatitis C virus (HCV); conditions: tested at 10 µM; % of DMSO control

## COc1ccc(-c2ccc3oc(-c4ccc(OC)cc4)c(C#CCCO)c3c2)cc1 [2{1}]
[1]
  inhibitory activity in the HCV-Luc assay: low-micromolar
[1]; read-out: HCV-Luc EC50, Huh7.5.1 cells, 48 h, Renilla luciferase signal
  EC50: 980 nM
[2]
  CC50: 70900 nM

## COc1ccc(-c2oc3ccc(-c4ccc5c(c4)OCO5)nc3c2C#CC2(O)CCCCC2)cc1 [10{21}, 1-((5-(Benzo[d][1,3]dioxol-5-yl)-2-(4-methoxyphenyl)furo-[3,2-b]pyridin-3-yl)ethynyl)cyclohexanol]
[3]
  VSVpp DMSO (%): 121%
[4]
  HCVsc DMSO (%): 20.0%
[1]; Huh-7.5.1, 48 h, read-out: HCV-Luc EC50
  EC50: 184 nM
[1]; Huh-7.5.1, read-out: HCV-Luc EC50
  EC50: 180 nM
[1]; SI = CC50/EC50, Huh7.5.1 cells
  Selective Index (SI): >543
[5]
  HCV Replicon DMSO (%) GT 2a: 121%
[6]
  CC50 at 48 h: > 100000 nM
[7]
  CC50: 92300 nM
[8]
  half-life: > 30 min
[9]
  extracellular and intracellular viral RNA levels: most promising activity
[10]
  HCVpp DMSO (%) GT la: 41.2%
[11]
  HCV Replicon DMSO (%) GT lb: 82.1%
[12]
  HCV Replicon DMSO (%) Transient la: 194%
[13]; PAMPA
  Papp: < 15.4 ×10⁻⁶ cm/s
[13]; double-sink PAMPA
  permeability: moderate permeability
[14]
  HCVpp DMSO (%) GT lb: 78.1%
